The subject of data set [1] is complement serum (guinea pig complement). The data set can be described thus: Anti-complement activity: 50% inhibition of hemolysis of sensitized erythrocytes. The class given is cell-based. Particulars: Cavia porcellus, Erythrocyte, 1 h, 37° C., 60 minutes, guinea pig complement diluted 150 times, OD413, read-out: Anti-Complement Activity Value (50% hemolysis inhibitory activity value). The protocol:
The anti-complement activity was measured and confirmed by the testing method described in Meneki Kagaku (Immuno-Chemistry), Yuichi Yamamura et al., Ed. pages 830-834, Asakura Shoten, Tokyo, Japan (1973). Specifically,a test tube was charged with 0.5 ml of an aqueous dispersion of each of the test compounds, 0.5 ml of sensitized erythrocytes (EA) containing 1×10^8 cells/ml, 1 ml of a 5-fold diluted solution of a Veronal buffer solution containing gelatin, Ca^++ and Mg^++ (GVB^++), and 0.5 ml of complement serum (guinea pig complement) diluted to 150 times with the GVB^++. The mixture was maintained hot at 37° C. for 60 minutes. Then, 5 ml of an ice-cold physiological saline solution was added thereto, and the mixture was centrifuged. […] The 50% hemolysis inhibitory activity value (γ/ml) measured by the above method is shown in Table 2 below for each test compound.

Data set [2] deals with Nephrotoxin-Type Nephritis. Briefly: Therapeutic effect on nephrotoxin-type nephritis (proteinuria). The class given is in vivo, male Wistar rats. Particulars: for amount of proteinurea, Average: average of 3 replications; for amount of proteinurea, Average / amount of proteinurea: 5 mg per rat i.p. once daily, 7 days; for amount of proteinurea: individual replication. The source says: Rat nephrotoxin ("NT" for brevity) was obtained as described below. Rat kidney cortex was homogenized with an equal quantity of physiological saline. The homogenized mixture was mixed with Freund's complete adjuvant (a product of Difco Company) in a volume ratio of 1:1. Two milliliters of the resulting mixture was intramuscularly injected into a rabbit (body weight 3,100 g) to immunize the rabbit. A month and a half later, blood was taken from the heart of the rabbit and serum was obtained. The resulting serum was inactivated at 56° C. for 30 minutes, then salted out with a 40% saturated aqueous solution of ammonium sulfate, and fractionated. The γ-globulin (IgG) fraction was collected to obtain NT.
The evaluation was carried out using male Wistar rats with a body weight of 150 to 160 g with three replications for each test compound. The test compound was intraperitoneally administered once every 24 hours for seven days. One hour after the administration of the test compound on the third day, the NT was applied. The NT was intravenously injected in an amount of 1 ml at a tail vein of each rat. Chlorophyllin (CP) was used as a comparison compound, and physiological saline solution was used as a control.
The proteinuria level (total amount excreted into the urine over a 24 hour period) was measured using turbidometry employing bovine serum albumin as a control by means of sulfosalicylic acid.

Data set [3] concerns Heymann-type Nephritis. Briefly: Therapeutic effects on Heymann-type nephritis (proteinuria). The class given is in vivo, male Wistar rats. Particulars: for amount of proteinurea, Average: average of 3 replications; for amount of proteinurea: individual replication. The protocol:
Male Wistar rats with a body weight of 180 to 200 g were used in the test. Rat kidney cortex was extracted, and homogenized with an equal quantity by volume of a physiological saline solution. The homogenate was centrifuged at 1500 G for 1 hour. The supernatant liquid was purified in accordance with the method of T. S. […] The resulting mixture was injected intraperitoneally into isologous rats in an amount of 0.5 ml per rat. […] (This period was about 6 to 8 weeks.) […] CP was used as a comparison compound, and physiological saline solution was used as a control. Three replications were conducted for each test compound.

A short description of data set [4]: Acute toxicity on intravenous administration to mice. Particulars: mouse, in vivo.
The mark [5] stands for this setting: Before Administration, group of 5 mg per rat i.p.
Where [6] appears, read: Day 1, 5 mg per rat i.p. once a day, 7 days.
Where [7] appears, read: Day 4, 5 mg per rat i.p. once a day, 7 days.
[8] abbreviates: Day 7, 5 mg per rat i.p. once a day, 7 days.
[9] abbreviates: Day 14, 5 mg per rat i.p. once a day, 7 days.
[10] abbreviates: Day 21, 5 mg per rat i.p. once a day, 7 days.

SMILES strings stand for the structures. Several values for one entry are separate records, joined by “and”; a condition that tells them apart may be missing. Identical values can stand only once.

As usually defined, the LD50 is the dose expected to kill half of the subjects tested. The low end stands for greater toxicity, the high end for lower toxicity.

Consider `CC1CCC2C(C)(C)C(O)C(O)CC2(C)C12Cc1c(O)cc(C=C(C#N)C(=O)O)c(C=C(C#N)C(=O)O)c1O2` (stereo not drawn) [(6), 6,7-Dihydroxy-2,5,5,8a-tetramethyl-1,2,3,4,4a,5,6,7,8,8a-decahydronaphthalene-1-spiro-2'-[6',7'-di-(2-cyano-2-carboxyvinyl)-4'-hydroxy-2',3'-dihydrobenzofuran]], for which the IC50 in data set [1] amounted to 40 µg/mL. In addition, the “amount of proteinurea, Average” value was 2.5 mg/day in data set [2] (Day 1); 1.8 mg/day in data set [2] (Day 4); 1.0 mg/day in data set [2] (Day 7); 10 mg/day in data set [2] (Day 10); 121 mg/day in data set [3] (setting [5]); 116 mg/day in data set [3] (setting [6]). Besides, the “amount of proteinurea, Average” value in data set [3] (setting [7]) amounted to 56 mg/day; in data set [3] (setting [8]), 37 mg/day; in data set [3] (setting [9]), 17 mg/day; in data set [3] (setting [10]), 12 mg/day. Also, the amount of proteinurea in data set [2] (Day 1) is 2.1 mg/day and 1.5 mg/day and 3.7 mg/day; in data set [2] (Day 4), 1.9 mg/day and 1.2 mg/day and 2.3 mg/day; in data set [2] (Day 7) it was 0.8 mg/day and 0.9 mg/day and 1.4 mg/day; in data set [2] (Day 10), 13 mg/day and 7 mg/day and 9 mg/day; in data set [3] (setting [5]) it was 98 mg/day and 127 mg/day and 139 mg/day; in data set [3] (setting [6]), 113 mg/day and 121 mg/day and 116 mg/day. The amount of proteinurea was 48 mg/day and 63 mg/day and 57 mg/day in data set [3] (setting [7]); 36 mg/day and 47 mg/day and 29 mg/day in data set [3] (setting [8]); 18 mg/day and 21 mg/day and 13 mg/day in data set [3] (setting [9]); 8 mg/day and 15 mg/day and 14 mg/day in data set [3] (setting [10]). In data set [4], the LD50 stood at 250 mg/kg.

`CC1CCC2C(C)(C)C(O)C(O)CC2(C)C12Cc1c(O)cc(C=CC(=O)O)c(C=CC(=O)O)c1O2` (stereo not drawn) [(7), 6,7-Dihydroxy-2,5,5,8a-tetramethyl-1,2,3,4,4a,5,6,7,8,8a-decahydronaphthalene-1-spiro-2'-[6',7'-di-(2-carboxyvinyl)-4'-hydroxy-2',3'-dihydrobenzofuran]]: the IC50 in data set [1] worked out at 80 µg/mL. Moreover, the “inhibition of the primary reaction of nephrotoxin-type nephritis” value in data set [2] (same test as Table 3, result in words) was “found to inhibit the primary reaction”. Further, in data set [3] (test of Table 4, result in words), the “activity of curing Heymann-type nephritis” value is “a substantial activity of curing Heymann-type nephritis”. In data set [4], this molecule returned an LD50 of 150 mg/kg.

As for `CC1CCC2C(C)(C)C(O)C(O)CC2(C)C12Cc1c(O)cc(C=O)c(C(=O)O)c1O2` (stereo not drawn) [(67), Disodium 6,7-dihydroxy-2,5,5,8a-tetramethyl-1,2,3,4,4a,5,6,7,8,8a-decahydronaphthalene-1-spiro-2'-(7'carboxylate-6'-formyl-4'-oxide-2',3'-dihydrobenzofuran)], the IC50 in data set [1] was determined as 60 µg/mL. For the same molecule, the “amount of proteinurea, Average” value in data set [2] (Day 1) is 3.0 mg/day; in data set [2] (Day 4), 1.7 mg/day; in data set [2] (Day 7), 1.1 mg/day; in data set [2] (Day 10), 9 mg/day; in data set [3] (setting [5]) it was 118 mg/day; in data set [3] (setting [6]), 117 mg/day. Also, the “amount of proteinurea, Average” value in data set [3] (setting [7]) is 59 mg/day; in data set [3] (setting [8]) it was 30 mg/day; in data set [3] (setting [9]), 14 mg/day; in data set [3] (setting [10]) it was 11 mg/day. Further, the amount of proteinurea is 2.7 mg/day and 4.1 mg/day and 2.3 mg/day in data set [2] (Day 1); 1.8 mg/day and 2.0 mg/day and 1.3 mg/day in data set [2] (Day 4); 0.7 mg/day and 1.5 mg/day and 1.2 mg/day in data set [2] (Day 7); 9 mg/day and 12 mg/day and 7 mg/day in data set [2] (Day 10); 117 mg/day and 132 mg/day and 105 mg/day in data set [3] (setting [5]); 109 mg/day and 127 mg/day and 114 mg/day in data set [3] (setting [6]). Further, the amount of proteinurea in data set [3] (setting [7]) was 59 mg/day and 67 mg/day and 51 mg/day; in data set [3] (setting [8]) it was 23 mg/day and 41 mg/day and 25 mg/day; in data set [3] (setting [9]), 13 mg/day and 17 mg/day and 11 mg/day; in data set [3] (setting [10]), 9 mg/day and 13 mg/day and 12 mg/day. For the same molecule, the 50% lethal dose (LD50) in data set [4] stood at 500 mg/kg.

These data come from patent publication US4229466A, “Sesquiterpene derivatives having anti-complementary activity” (Otsuka Pharmaceutical Co., Ltd., priority 1977, dated 1980).
